Measurements as given in ChEMBL document CHEMBL2380196, “New anticancer active and selective phenylene-bisbenzothiazoles: synthesis, antiproliferative evaluation and DNA binding” (Eur J Med Chem, 2013).
Calls of active or inactive are those of the source. No cut-off for these calls is given here.

Tests used:
SK-BR-3 [1] = assay: Cell cycle arrest in human SKBR3 cells assessed as accumulation in G2/M phase at 5 uM after 48 hrs using propidium iodide staining by flow cytometry relative to control; assay type: functional
SK-BR-3 [2] = assay: Cell cycle arrest in human SKBR3 cells assessed as accumulation in G1 phase at 5 uM after 48 hrs using propidium iodide staining by flow cytometry relative to control; assay type: functional
HeLa [3] = assay: Cell cycle arrest in human HeLa cells assessed as accumulation in G1 phase at 10 uM after 48 hrs using propidium iodide staining by flow cytometry relative to control; assay type: functional
SK-BR-3 [4] = assay: Cell cycle arrest in human SKBR3 cells assessed as accumulation in sub-G1 phase at 5 uM after 48 hrs using propidium iodide staining by flow cytometry relative to control; assay type: functional
MIA PaCa-2 [5] = assay: Cell cycle arrest in human MIAPaCa2 cells assessed as accumulation in G1 phase at 10 uM after 24 hrs using propidium iodide staining by flow cytometry relative to control; assay type: functional
DNA = assay: Binding affinity to calf thymus DNA assessed as hypochromic effect at 20 uM by UV/Vis spectra analysis; assay type: nucleic-acid assay; details: Bos taurus
MIA PaCa-2 [6] = assay: Cell cycle arrest in human MIAPaCa2 cells assessed as accumulation in G2/M phase at 5 uM after 48 hrs using propidium iodide staining by flow cytometry relative to control; assay type: functional
[7] = (§1) Antiproliferative activity against human WI38 cells after 72 hrs by MTT assay; assay type: cell-based, WI-38; details: human, WI-38 cells; read-out: LC50
WI-38 = assay: as §1; assay type: cell-based; details: Homo sapiens, WI-38, 72 h
MIA PaCa-2 [8] = assay: Cell cycle arrest in human MIAPaCa2 cells assessed as accumulation in S phase at 10 uM after 24 hrs using propidium iodide staining by flow cytometry relative to control; assay type: functional
HeLa [9] = assay: Cell cycle arrest in human HeLa cells assessed as accumulation in sub-G1 phase at 10 uM after 48 hrs using propidium iodide staining by flow cytometry relative to control; assay type: functional
HeLa [10] = assay: Cell cycle arrest in human HeLa cells assessed as accumulation in G2/M phase at 5 uM after 48 hrs using propidium iodide staining by flow cytometry relative to control; assay type: functional
HeLa [11] = assay: Antiproliferative activity against human HeLa cells after 72 hrs by MTT assay; assay type: functional, cell-based; details: for CC50: read-out: LC50 (the source's name)
HeLa [12] = assay: Cell cycle arrest in human HeLa cells assessed as accumulation in G1 phase at 5 uM after 24 hrs using propidium iodide staining by flow cytometry relative to control; assay type: functional
MIA PaCa-2 [13] = assay: Cell cycle arrest in human MIAPaCa2 cells assessed as accumulation in S phase at 5 uM after 24 hrs using propidium iodide staining by flow cytometry relative to control; assay type: functional
SK-BR-3 [14] = assay: Cell cycle arrest in human SKBR3 cells assessed as accumulation in sub-G1 phase at 10 uM after 24 hrs using propidium iodide staining by flow cytometry relative to control; assay type: functional
MIA PaCa-2 [15] = assay: Cell cycle arrest in human MIAPaCa2 cells assessed as accumulation in G1 phase at 5 uM after 24 hrs using propidium iodide staining by flow cytometry relative to control; assay type: functional
HeLa [16] = assay: Cell cycle arrest in human HeLa cells assessed as accumulation in G2/M phase at 10 uM after 48 hrs using propidium iodide staining by flow cytometry relative to control; assay type: functional
HeLa [17] = assay: Cell cycle arrest in human HeLa cells assessed as accumulation in sub-G1 phase at 5 uM after 48 hrs using propidium iodide staining by flow cytometry relative to control; assay type: functional
HeLa [18] = assay: Cell cycle arrest in human HeLa cells assessed as accumulation in G2/M phase at 10 uM after 24 hrs using propidium iodide staining by flow cytometry relative to control; assay type: functional
SK-BR-3 [19] = assay: Cell cycle arrest in human SKBR3 cells assessed as accumulation in S phase at 10 uM after 48 hrs using propidium iodide staining by flow cytometry relative to control; assay type: functional
SK-BR-3 [20] = assay: Cell cycle arrest in human SKBR3 cells assessed as accumulation in G1 phase at 10 uM after 48 hrs using propidium iodide staining by flow cytometry relative to control; assay type: functional
HeLa [21] = assay: Cell cycle arrest in human HeLa cells assessed as accumulation in sub-G1 phase at 5 uM after 24 hrs using propidium iodide staining by flow cytometry relative to control; assay type: functional
MIA PaCa-2 [22] = assay: Cell cycle arrest in human MIAPaCa2 cells assessed as accumulation in sub-G1 phase at 10 uM after 48 hrs using propidium iodide staining by flow cytometry relative to control; assay type: functional
SK-BR-3 [23] = assay: Cell cycle arrest in human SKBR3 cells assessed as accumulation in G2/M phase at 10 uM after 48 hrs using propidium iodide staining by flow cytometry relative to control; assay type: functional
SK-BR-3 [24] = assay: Cell cycle arrest in human SKBR3 cells assessed as accumulation in sub-G1 phase at 10 uM after 48 hrs using propidium iodide staining by flow cytometry relative to control; assay type: functional
HeLa [25] = assay: Cell cycle arrest in human HeLa cells assessed as accumulation in S phase at 5 uM after 48 hrs using propidium iodide staining by flow cytometry relative to control; assay type: functional
MCF7 = assay: Antiproliferative activity against human MCF7 cells after 72 hrs by MTT assay; assay type: functional, cell-based; details: MCF7, 72 h; for CC50: read-out: LC50 (the source's name)
SK-BR-3 [26] = assay: Cell cycle arrest in human SKBR3 cells assessed as accumulation in S phase at 10 uM after 24 hrs using propidium iodide staining by flow cytometry relative to control; assay type: functional
HeLa [27] = assay: Cell cycle arrest in human HeLa cells assessed as accumulation in G1 phase at 5 uM after 48 hrs using propidium iodide staining by flow cytometry relative to control; assay type: functional
MIA PaCa-2 [28] = assay: Cell cycle arrest in human MIAPaCa2 cells assessed as accumulation in sub-G1 phase at 5 uM after 48 hrs using propidium iodide staining by flow cytometry relative to control; assay type: functional
HeLa [29] = assay: Cell cycle arrest in human HeLa cells assessed as accumulation in sub-G1 phase at 10 uM after 24 hrs using propidium iodide staining by flow cytometry relative to control; assay type: functional
MIA PaCa-2 [30] = assay: Cell cycle arrest in human MIAPaCa2 cells assessed as accumulation in G2/M phase at 10 uM after 48 hrs using propidium iodide staining by flow cytometry relative to control; assay type: functional
SK-BR-3 [31] = assay: Cell cycle arrest in human SKBR3 cells assessed as accumulation in G1 phase at 5 uM after 24 hrs using propidium iodide staining by flow cytometry relative to control; assay type: functional
HeLa [32] = assay: Cell cycle arrest in human HeLa cells assessed as accumulation in G2/M phase at 5 uM after 24 hrs using propidium iodide staining by flow cytometry relative to control; assay type: functional
SK-BR-3 [33] = assay: Induction of apoptosis in human SKBR3 cells at 10 uM after 48 hrs using propidium iodide/Annexin-V staining by flow cytometry relative to control; assay type: functional
HeLa [34] = assay: Cell cycle arrest in human HeLa cells assessed as accumulation in S phase at 10 uM after 48 hrs using propidium iodide staining by flow cytometry relative to control; assay type: functional
MIA PaCa-2 [35] = assay: Cell cycle arrest in human MIAPaCa2 cells assessed as accumulation in S phase at 10 uM after 48 hrs using propidium iodide staining by flow cytometry relative to control; assay type: functional
MIA PaCa-2 [36] = assay: Cell cycle arrest in human MIAPaCa2 cells assessed as accumulation in G1 phase at 10 uM after 48 hrs using propidium iodide staining by flow cytometry relative to control; assay type: functional
HeLa [37] = assay: Cell cycle arrest in human HeLa cells assessed as accumulation in S phase at 5 uM after 24 hrs using propidium iodide staining by flow cytometry relative to control; assay type: functional

Structure (SMILES): Cl.Cl.c1cc(-c2nc3ccc(C4=NCCN4)cc3s2)cc(-c2nc3ccc(C4=NCCN4)cc3s2)c1
- Activity (SK-BR-3 [1]): 21.1%
- Activity (SK-BR-3 [2]): 36.2%
- Activity (HeLa [3]): 20.4%
- Activity (SK-BR-3 [4]): 21.6%
- Activity (MIA PaCa-2 [5]): 41.6%
- Activity (DNA): Active
- Activity (MIA PaCa-2 [6]): 17.1%
- CC50 at 72 h [7]: 6.63 µM
- IC50 (WI-38): 0.15 µM
- Activity (MIA PaCa-2 [8]): 49.1%
- Activity (HeLa [9]): 15.5%
- Activity (HeLa [10]): 17.2%
- IC50 (HeLa [11]): 2.06 µM
- CC50 (HeLa [11]): 7.38 µM
- Activity (HeLa [12]): 39.3%
- Activity (MIA PaCa-2 [13]): 33.6%
- Activity (SK-BR-3 [14]): 23.1%
- Activity (MIA PaCa-2 [15]): 60.2%
- Activity (HeLa [16]): 13.2%
- Activity (HeLa [17]): 13.3%
- Activity (HeLa [18]): 2.1%
- Activity (SK-BR-3 [19]): 67.8%
- Activity (SK-BR-3 [20]): 22.1%
- Activity (HeLa [21]): 14.4%
- Activity (MIA PaCa-2 [22]): 9.1%
- Activity (SK-BR-3 [23]): 11.1%
- Activity (SK-BR-3 [24]): 12.5%
- Activity (HeLa [25]): 39.3%
- IC50 (MCF7): > 100 µM
- CC50 (MCF7): 5.3 µM
- Activity (SK-BR-3 [26]): 62.1%
- Activity (HeLa [27]): 47.5%
- Activity (MIA PaCa-2 [28]): 20.4%
- Activity (HeLa [29]): 12.5%
- Activity (MIA PaCa-2 [30]): 8.6%
- Activity (SK-BR-3 [31]): 34.5%
- Activity (HeLa [32]): 24%
- Activity (SK-BR-3 [33]): 75%
- Activity (HeLa [34]): 71.4%
- Activity (MIA PaCa-2 [35]): 50.8%
- Activity (MIA PaCa-2 [36]): 42.8%
- Activity (HeLa [37]): 38.4%

Structure (SMILES): Cl.Cl.c1cc2nc(-c3ccc(-c4nc5ccc(C6=NCCN6)cc5s4)cc3)sc2cc1C1=NCCN1
- Activity (SK-BR-3 [1]): 13.8%
- Activity (SK-BR-3 [2]): 53.6%
- Activity (HeLa [3]): 42.3%
- Activity (SK-BR-3 [4]): 27.5%
- Activity (MIA PaCa-2 [5]): 40.9%
- Activity (DNA): Active
- Activity (MIA PaCa-2 [6]): 18.4%
- CC50 at 72 h [7]: > 100 µM
- IC50 (WI-38): > 100 µM
- Activity (MIA PaCa-2 [8]): 40.1%
- Activity (HeLa [9]): 23.2%
- Activity (HeLa [10]): 18.9%
- IC50 (HeLa [11]): 7.75 µM
- CC50 (HeLa [11]): 71.1 µM
- Activity (HeLa [12]): 42%
- Activity (MIA PaCa-2 [13]): 55%
- Activity (SK-BR-3 [14]): 31.6%
- Activity (MIA PaCa-2 [15]): 35.2%
- Activity (HeLa [16]): 14.5%
- Activity (HeLa [17]): 22.7%
- Activity (HeLa [18]): 7.2%
- Activity (SK-BR-3 [19]): 42.3%
- Activity (SK-BR-3 [20]): 41.3%
- Activity (HeLa [21]): 9.9%
- Activity (MIA PaCa-2 [22]): 53.9%
- Activity (SK-BR-3 [23]): 20.3%
- Activity (SK-BR-3 [24]): 32.1%
- Activity (HeLa [25]): 49.6%
- IC50 (MCF7): 3.07 µM
- CC50 (MCF7): > 100 µM
- Activity (SK-BR-3 [26]): 39.1%
- Activity (HeLa [27]): 31.9%
- Activity (MIA PaCa-2 [28]): 35.7%
- Activity (HeLa [29]): 15.5%
- Activity (MIA PaCa-2 [30]): 18.4%
- Activity (SK-BR-3 [31]): 58.9%
- Activity (HeLa [32]): 13.4%
- Activity (SK-BR-3 [33]): 15%
- Activity (HeLa [34]): 44%
- Activity (MIA PaCa-2 [35]): 40.9%
- Activity (MIA PaCa-2 [36]): 40.6%
- Activity (HeLa [37]): 44.5%
